# Assay results: patent US7576129B2, “Carboxylic acid compounds” (Ono Pharmaceutical Co., Ltd., priority 2003, dated 2009)
# What was measured:
# Format in all cases: in vivo, rat
# [1] = tested on: carrageenin-induced hyperalgesia model; experiment: Carrageenin-induced hyperalgesia model (escape latency, plantar test); conditions: male SD rats, oral 3, 10 and 30 mg/kg 1 hour before carrageenin, 3 hours after injection
# Procedure: An analgesic effect of the compound of the present invention to carrageenin-induced hyperalgesia model which was an acute inflammation pain model was investigated as follows using escape latency as an index. Male rats of an SD strain of seven weeks age were used. Thermal stimulation was irradiated to right hind leg of each rat using a measuring device for a plantar test and the time until escape raising the leg was measured and used as the escape latency. Depending upon the escape latency, grouping was conducted where each group comprised 7 to 8 rats and each of the compound of the present invention (3, 10 and 30 mg/kg) and a 0.5% aqueous solution of methyl cellulose (5 mL/kg) as a control was orally administered. After 1 hour from the oral administration of a test substance, carrageenin (2 mg/100 μL) dissolved in a physiological saline was subcutaneously injected to the sole of right hind leg of the rat. The escape latency during 3 hours after injection of carrageenin was measured.
# [2] = tested on: adjuvant-induced arthritis model; experiment: Pain reaction of adjuvant-induced arthritis model (squeaking reaction); conditions: Lewis male rats, oral, 1, 3, 10 and 30 mg/kg, observed 1-4 hours after administration
# Procedure: A suppressive effect of the compound of the present invention to pain reaction of an adjuvant-induced arthritis model which is a pain model for chronic arthritis was investigated as follows using a squeaking reaction as an index. Lewis male rats of seven weeks age were used. After volume of the left hind leg of each rat was measured, 600 μg/100 μL of dried cells of Mycobacterium butyricum (Difco) suspended in liquid paraffin was injected as an adjuvant into paw skin of a right hind leg to prepare an adjuvant-arthritis rat. After 22 days from injection of the adjuvant, bending and stretching of a knee joint of the left hind leg were conducted for five times before oral administration of a test substance and the rats which squeaked for all of the five times were subjected to the experiment. Depending upon the volume of edema of left hind leg on the previous day, grouping was conducted where one group comprised ten rats. Each of the compound of the present invention (1, 3, 10 and 30 mg/kg) and a 0.5% aqueous solution of methyl cellulose (5 mL/kg) as a control was orally administered. An analgesic action was observed after 1, 2, 3 and 4 hour(s) from the administration.
# [3] = tested on: pollakiuria model induced by sulprostone; experiment: Pollakiuria model induced by sulprostone (urination frequency); conditions: male Crj: CD (SD) IGS rats, oral 3, 10, 30 and 100 mg/kg 0.5 hour before sulprostone s.c., 3 hours measurement
# Procedure: A suppressive action of the compound of the present invention to a pollakiuria model induced by sulprostone was investigated as follows. Male Crj: CD (SD) IGS rats of body weight of about 300 g were used. Each of the compound of the present invention (3, 10, 30 and 100 mg/kg) and a 0.5% aqueous solution of methyl cellulose (5 mL/kg) as a control was orally administered. After 0.5 hour from oral administration of a test substance, sulprostone (0.2 mg/4 mL/kg) was subcutaneously administered. As a non-induced group, a 0.5% aqueous solution of methyl cellulose was orally administered and, after […], a physiological saline was subcutaneously administered. Measurement of urination was conducted from immediately after administration of sulprostone until 3 hours thereafter. Measurement of urination was done in such a manner that, under the condition of giving neither feed nor water, the animals were placed in a metabolic cage equipped with a urine measuring device and weight of the collected urine with a lapse of time was recorded using a data-collecting system. Incidentally, case numbers for each group were made 3 to 4 cases.
compound,measurement,setting,value
"Cc1cc(C)cc([C@@H](CC(C)C)NC(=O)c2cc(COc3cc(F)ccc3C)ccc2CCC(=O)O)c1 [compound (I), 3-(2-((((1R)-1-(3,5-dimethylphenyl)-3-methylbutyl)amino)carbonyl)-4-(5-fluoro-2-methylphenoxymethyl)phenyl)propanoic acid]",dose as from which escape latency was significantly high as compared with the control group,[1],not more than 10 mg/kg
same,dose as from which individual positive for the analgesic action was noted,[2],≤ 10 mg/kg
same,dose as from which urination frequency showed low values,[3],not more than 30 mg/kg
